Where “and” joins values, the source holds several entries; their conditions need not be identical. Equal entries are not always repeated.
Experiments:
EGFR = EGFR (Homo sapiens, UniProt P00533); assay: ProQinase in-cell EGFR assay (EGFR phosphorylation in A431 cells); format: cell-based; parameters: This cell line endogenously expresses a high level of EGFR; endogenous in cells; host or cells: A431; conditions: ProQinase in-cell EGFR assay, A431 cells, n = 1
Description: In addition, we ran an EGFR in-cell target engagement assay, measuring in-cell EGFR phosphorylation, using the human epidermoid carcinoma cell line A431. This cell line endogenously expresses a high level of EGFR, and stimulation of these cells with human epidermal growth factor (EGF) results in receptor tyrosine autophosphorylation.

[1] = system: CH22 patient-derived chordoma cell line; assay: Cell viability assay (alamarBlue, 72 h), CH22; format: cell-based, human; conditions: n = 4, 72 h
Description: (§1) Chordoma cell lines were cultured as described previously[10],[12],[33],[34]. Briefly, U-CH1 and U-CH2 cell lines were cultured in 4:1 IMDM:RPMI medium supplemented with 10% fetal bovine serum (FBS) and 1% penicillin/streptomycin in gel-coated flasks. […] CH22, UM-Chor1, U-CH12, and U-CH7 cell lines were cultured in RPMI medium supplemented with 10% FBS and 1% penicillin/streptomycin. The cell lines all undergo regular mycoplasma screening.
(§2) Cells were seeded in 384 well plates and were treated with test compound in quadruplicate 24 h after plating. Cell viability was assessed at 72 h using alamarBlue (ThermoFisher, USA). […] IC50 values were determined by four-parameter nonlinear regression analyses using GraphPad Prism™ version 8 software (San Diego, CA).

[2] = system: UM-Chor1 patient-derived chordoma cell line; assay: Cell viability assay (alamarBlue, 72 h), UM-Chor1; format: cell-based, human; conditions: n = 4, 72 h
Description: as §1, §2

[3] = system: U-CH7 patient-derived chordoma cell line; assay: Cell viability assay (alamarBlue, 72 h), U-CH7; format: cell-based, human; conditions: n = 4, 72 h
Description: as §1, §2

[4] = system: U-CH12 patient-derived chordoma cell line; assay: Cell viability assay (alamarBlue, 72 h), U-CH12; format: cell-based, human; conditions: n = 4, 72 h
Description: as §1, §2

U-CH2 chordoma cell line = assay: Cell viability assay (alamarBlue, 72 h), U-CH2; format: cell-based, human
Description: as §1, §2

HL60 cells = assay: AsedaSciences SYSTEMETRIC Cell Health Screen (flow cytometry toxicity profiling); conditions: for CC: Cell Cycle score / CM: Cell morphology score / CMI: Cell membrane integrity score / GSH: Glutathione score / MMP: Mitochondrial membrane depolarization score / NMI1: Nuclear membrane integrity 1 score / NMI2: Nuclear membrane integrity 2 score / ROS: Reactive superoxide species score / CHI: Cell Health Index: HL60, 4 h, 5 nM–100 µM; for CC: Cell Cycle score / CM: Cell morphology score / CMI: Cell membrane integrity score / GSH: Glutathione score / MMP: Mitochondrial membrane depolarization score / NMI1: Nuclear membrane integrity 1 score / NMI2: Nuclear membrane integrity 2 score / ROS: Reactive superoxide species score: probability 0–1, n = 2; for CHI: Cell Health Index: probability (0–1) of high-risk class, n = 2; for Cell Health Toxcity Profile CC (DyeCycle Violet) / Cell Health Toxcity Profile CM (Cell morphology) / Cell Health Toxcity Profile CMI (Cell membrane integrity) / Cell Health Toxcity Profile GSH (Glutathione) / Cell Health Toxcity Profile MMP (Mitochondrial membrane depolarization) / Cell Health Toxcity Profile NMI1 (Nuclear membrane integrity 1) / Cell Health Toxcity Profile NMI2 (Nuclear membrane integrity 2) / Cell Health Toxcity Profile ROS (Reactive superoxide species) / Cell Health Toxcity Profile CHI: SYSTEMETRIC Cell Health Screen, assay n=2; for Cell Health Toxcity Profile CHI: classifier output
Outline: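 HL60 cells (100,000 per well) exposed 4 h at 37 °C, 5% CO2 to 10-step 3× dilutions (5 nM–100 µM), in duplicate. Cells then stained with mitochondrial and cell-stress reporter dyes and read by ungated flow cytometry over twelve parameters. Cell Health Index and eight endpoint scores come from an ML classifier trained on 300 high/low-risk compounds.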

U-CH1 chordoma cell line = assay: Cell viability assay (alamarBlue, 72 h), U-CH1; format: cell-based, human
Description: as §1, §2

[5] = system: WS1 human fibroblast cell line; assay: Cell viability assay, WS1 toxicity control; format: cell-based; conditions: n = 4, nonspecific toxicity control
Description: as §2

Sequence of EGFR (P00533 25-1210): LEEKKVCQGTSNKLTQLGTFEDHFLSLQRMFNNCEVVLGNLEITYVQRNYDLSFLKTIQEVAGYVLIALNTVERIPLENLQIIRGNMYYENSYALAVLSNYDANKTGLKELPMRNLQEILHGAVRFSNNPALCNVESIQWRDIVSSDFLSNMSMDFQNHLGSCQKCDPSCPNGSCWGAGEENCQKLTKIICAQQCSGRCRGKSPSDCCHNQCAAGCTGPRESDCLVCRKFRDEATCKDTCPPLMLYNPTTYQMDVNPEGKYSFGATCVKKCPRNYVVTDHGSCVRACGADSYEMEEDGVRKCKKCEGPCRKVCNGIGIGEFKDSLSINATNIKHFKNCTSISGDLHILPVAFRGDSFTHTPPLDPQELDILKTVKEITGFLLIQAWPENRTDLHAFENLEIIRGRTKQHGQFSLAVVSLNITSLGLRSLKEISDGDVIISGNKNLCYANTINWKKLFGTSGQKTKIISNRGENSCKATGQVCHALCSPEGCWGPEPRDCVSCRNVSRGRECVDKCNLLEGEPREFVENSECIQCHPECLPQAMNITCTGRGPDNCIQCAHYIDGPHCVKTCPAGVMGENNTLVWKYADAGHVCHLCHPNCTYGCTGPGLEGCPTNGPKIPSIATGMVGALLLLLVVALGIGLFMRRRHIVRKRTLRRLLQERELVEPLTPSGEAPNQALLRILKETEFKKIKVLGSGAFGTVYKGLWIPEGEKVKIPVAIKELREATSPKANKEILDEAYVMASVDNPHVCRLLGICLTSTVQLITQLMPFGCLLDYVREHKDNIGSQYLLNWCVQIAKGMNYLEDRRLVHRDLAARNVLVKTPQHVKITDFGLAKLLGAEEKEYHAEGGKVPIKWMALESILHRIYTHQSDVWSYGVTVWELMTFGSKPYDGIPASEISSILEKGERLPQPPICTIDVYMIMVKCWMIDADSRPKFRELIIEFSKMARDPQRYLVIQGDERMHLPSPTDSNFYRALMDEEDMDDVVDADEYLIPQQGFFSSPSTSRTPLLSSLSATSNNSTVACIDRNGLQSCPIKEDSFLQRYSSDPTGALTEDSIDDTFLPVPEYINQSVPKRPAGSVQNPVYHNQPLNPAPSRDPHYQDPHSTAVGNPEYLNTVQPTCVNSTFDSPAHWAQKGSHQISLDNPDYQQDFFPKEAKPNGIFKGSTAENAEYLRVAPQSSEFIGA

Row | SMILES | IC50 (EGFR) [µM] | IC50 (U-CH2 chordoma cell line; n = 4, 72 h) [µM] | CC: Cell Cycle score (HL60 cells) | CM: Cell morphology score (HL60 cells) | CMI: Cell membrane integrity score (HL60 cells) | GSH: Glutathione score (HL60 cells) | MMP: Mitochondrial membrane depolarization score (HL60 cells) | NMI1: Nuclear membrane integrity 1 score (HL60 cells) | NMI2: Nuclear membrane integrity 2 score (HL60 cells) | ROS: Reactive superoxide species score (HL60 cells) | CHI: Cell Health Index (HL60 cells) | IC50 (U-CH1 chordoma cell line; n = 4, 72 h) [µM] | Cell Health Toxcity Profile CC (DyeCycle Violet) (HL60 cells) | Cell Health Toxcity Profile CM (Cell morphology) (HL60 cells) | Cell Health Toxcity Profile CMI (Cell membrane integrity) (HL60 cells) | Cell Health Toxcity Profile GSH (Glutathione) (HL60 cells) | Cell Health Toxcity Profile MMP (Mitochondrial membrane depolarization) (HL60 cells) | Cell Health Toxcity Profile NMI1 (Nuclear membrane integrity 1) (HL60 cells) | Cell Health Toxcity Profile NMI2 (Nuclear membrane integrity 2) (HL60 cells) | Cell Health Toxcity Profile ROS (Reactive superoxide species) (HL60 cells) | further results
1 | C#Cc1cccc(Nc2ncnc3cc(F)c(F)cc23)c1 [Compound 6, N-(3-ethynylphenyl)-6,7-difluoroquinazolin-4-amine] | 12 | – | – | – | – | – | – | – | – | – | – | – | – | – | – | – | – | – | – | – | –
2 | C#Cc1cccc(Nc2ncnc3cc(C#N)ccc23)c1 [Compound 17] | > 20 | > 100 | 0.25 | 0.43 | 0.052 | 0.04 | 0.10 | 0.37 | 0.10 | 0.41 | 0.45 | 65 | – | – | – | – | – | – | – | – | IC50 [1]: > 100 µM; IC50 [2]: > 100 µM; IC50 [3]: > 100 µM; IC50 [4]: > 100 µM; IC50 [5]: > 100 µM
3 | C#Cc1cccc(Nc2ncnc3cc(OCCOC)c(OCCOC)cc23)c1 [Erlotinib, reference compound] | – | – | – | 0.77 | 0.50 and 0.74 | 0.63 and 0.81 | – | – | – | – | – | – | – | – | – | – | – | – | – | – | IC50 ([1]; Homo sapiens): > 100 µM; IC50 ([2]; Homo sapiens): 19 µM; IC50 ([3]; Homo sapiens): 95 µM; IC50 ([4]; Homo sapiens): 68 µM; IC50 ([5]; Homo sapiens, Fibroblast): 19 µM
4 | C#Cc1cc(Nc2ncnc3cc(I)ccc23)ccc1F [Compound 40] | 3.6 | > 100 | 0.28 | 0.049 | 0.26 | 0.033 | 0.59 | 0.46 | 0.33 | 0.34 | 0.38 | > 100 | – | – | – | – | – | – | – | – | IC50 [1]: 50 µM; IC50 [2]: > 100 µM; IC50 [3]: > 100 µM; IC50 [4]: > 100 µM; U-CH2 IC50 (U-CH2 chordoma cell line; n = 4, 72 h): no activity; U-CH1 IC50 (U-CH1 chordoma cell line; n = 4, 72 h): no activity; IC50 [5]: > 100 µM
5 | C#Cc1ccc(F)c(Nc2ncnc3cc(OC)c(OC)cc23)c1 [Compound 42] | 0.29 | 20 | 0.67 | 0.31 | 0.78 | 0.25 | 0.89 | 0.13 | 0.85 | 0.63 | 0.48 | 6.7 | – | – | – | – | – | – | – | – | IC50 [1]: 4.2 µM; IC50 [2]: > 100 µM; IC50 [3]: > 100 µM; IC50 [4]: > 100 µM; IC50 [5]: 20 µM
6 | C#Cc1cccc(Nc2c(C#N)cnc3cc(Br)ccc23)c1 [Compound 31] | – | > 100 | – | – | – | – | – | – | – | – | – | > 100 | 0.92 | 0.95 | 0.88 | 0.92 | 0.84 | 0.45 | 0.34 | 0.87 | Cell Health Toxcity Profile CHI (HL60 cells): 0.59
7 | C#Cc1cccc(Nc2ncnc3cc4c(cc23)OCO4)c1 [Compound 20] | – | > 100 | 0.13 | 0.0019 | 0.0038 | 0.087 | 0.016 | 0.72 | 0.0045 | 0.027 | 0.18 | 22 | – | – | – | – | – | – | – | – | –
8 | C#Cc1cccc(Nc2ncnc3ccc(OC)cc23)c1 [Compound 2] | – | 47 | 0.38 | 0.24 | 0.62 | 0.038 | 0.019 | 0.42 | 0.068 | 0.17 | 0.31 | 1.4 | – | – | – | – | – | – | – | – | –
9 | C#Cc1cccc(Nc2ncnc3ccc(F)cc23)c1 [Compound 5] | – | > 100 | 0.34 | 0.0041 | 0.091 | 0.087 | 0.26 | 0.082 | 0.11 | 0.34 | 0.26 | 19 | – | – | – | – | – | – | – | – | –
10 | C#Cc1cccc(Nc2ncnc3ccccc23)c1 [Compound 3] | – | 52 | 0.86 | 0.96 | 0.99 | 0.98 | 1.00 | 0.53 | 0.76 | 0.98 | 0.74 | 35 | – | – | – | – | – | – | – | – | –
11 | C#Cc1cccc(Nc2c(C#N)cnc3ccc(I)cc23)c1 [Compound 28, 4-((3-ethynylphenyl)amino)-6-iodoquinoline-3-carbonitrile] | 2.5 | – | 0.91 | 0.88 | 1.00 | 0.93 | 0.99 | 0.74 | 0.81 | 0.89 | 0.70 | – | 0.91 | 0.88 | 1.00 | 0.93 | 0.99 | 0.74 | 0.81 | 0.89 | IC50 ([1]; Homo sapiens): 8.4 µM; IC50 ([2]; Homo sapiens): 6.9 µM; IC50 ([3]; Homo sapiens): > 100 µM; IC50 ([4]; Homo sapiens): 7.7 µM; IC50 (U-CH2 chordoma cell line; Homo sapiens, UCH2, n = 4, 72 h): 14 µM; Cell Health Toxcity Profile CHI (HL60 cells): 0.70; IC50 (U-CH1 chordoma cell line; Homo sapiens, UCH1, n = 4, 72 h): 8.7 µM
12 | C#Cc1cccc(Nc2c(C#N)cnc3ccc(OC)cc23)c1 [Compound 23] | – | > 100 | – | – | – | – | – | – | – | – | – | 20 | 0.74 | 0.020 | 0.0039 | 0.0085 | 0.28 | 0.30 | 0.11 | 0.056 | Cell Health Toxcity Profile CHI (HL60 cells): 0.26
13 | C#Cc1cccc(Nc2c(C#N)cnc3cc(Cl)ccc23)c1 [Compound 30] | – | > 100 | – | – | – | – | – | – | – | – | – | > 100 | 0.17 | 0.31 | 0.25 | 0.065 | 0.080 | 0.69 | 0.041 | 0.44 | Cell Health Toxcity Profile CHI (HL60 cells): 0.35
14 | C#Cc1cccc(Nc2ncnc3cc(Br)ccc23)c1 [Compound 14] | – | > 100 | 0.74 | 0.024 | 0.41 | 0.010 | 0.17 | 0.033 | 0.3 | 0.86 | 0.33 | 54 | – | – | – | – | – | – | – | – | –
15 | C#Cc1cccc(Nc2c(C#N)cnc3cc(OC)ccc23)c1 [Compound 33] | – | 40 | – | – | – | – | – | – | – | – | – | 4.1 | 0.81 | 0.97 | 0.90 | 0.78 | 0.22 | 0.20 | 0.16 | 0.68 | Cell Health Toxcity Profile CHI (HL60 cells): 0.44
